The values that follow come from patent US8012944B2, “Method for treating cancer using IAP antisense oligomer and chemotherapeutic agent” (Pharmascience Inc., priority 2003, dated 2011).

The subject of one data set is HIAP1 protein. Put plainly: HIAP1 protein in cycloheximide-induced SF295 cells (western blot). In kind it is cell-based, human.
Conditions: not given
The text has this:
HIAP1 was detected on a western immunoblot using an affinity-purified anti-rat HIAP1 rabbit polyclonal antibody as a primary antibody and was detected by ECL (Amersham) on X-ray film with a secondary horseradish-peroxidase-conjugated anti-rabbit Ig antibody and a chemiluminescent substrate. The anti-HIAP1 polyclonal antibody is raised against a GST-fusion of the rat HIAP1. This antibody cross-reacts with both human and murine HIAP1 and HIAP2.
(§1) The effect of HIAP1 antisense nucleobase oligomers on HIAP1 protein and mRNA expression was also examined in cells induced to express HIAP1. SF295 cells were transfected with oligonucleotides, or were mock transfected. The transfected cells were then treated with 10 μg/ml cycloheximide for 24 hours to induce 70 kDa HIAP1 mRNA and protein. Protein levels were measured by western blot analysis with an anti-HIAP1 polyclonal antibody, and normalized against actin protein in a re-probing of the same blots. The densitometric scan results were plotted against the mock results (set at 100%) in FIG. 22B. […] The transfection process itself (e.g., mock or scrambled survivin) induces HIAP1 protein compared to the untreated sample as shown on the western immunoblot.
(In general: A western blot detects proteins with antibodies after separation by electrophoresis.)
As for “CAAGTACTCACACCTTGGA (chemistry not given here) [APO 12]”, the “activity in the HIAP1 protein and mRNA assays” value (from here on “activity”) is “high activity, or had significant activity in both the protein and mRNA assays”.

For the substance “CCAGTGGTTTGCAAGCATG (chemistry not given here) [APO 7]”, the “activity” value was “high activity, or had significant activity in both the protein and mRNA assays”.

Regarding “GAAATTTAGTGGCCAGGAA (chemistry not given here) [APO 8]”, the “activity” value was “high activity, or had significant activity in both the protein and mRNA assays”.

As to “GGGCTCAAGTAATTCTCTT (chemistry not given here) [APO 15]”, the “activity” value is “high activity, or had significant activity in both the protein and mRNA assays”.

For the substance “TCATTTGAGCCTGGGAGGT (chemistry not given here) [APO 1]”, the “activity” value is “high activity, or had significant activity in both the protein and mRNA assays”.

The test system of the next data set is HIAP1 mRNA. Put plainly: HIAP1 mRNA in SF295 cells under cycloheximide induction (TaqMan). In kind it is cell-based, human.
Conditions: not given
The method, then:
as §1
Controls for this experiment were three oligonucleotides for APO 2: one scrambled sequence (same base composition but random order, 5′-AAGGGCGGCGGAGTGAGAC-3′; SEQ ID NO: 297), one reverse polarity (same base composition, same sequential order but in the opposite direction, 5′-AGAGGACGGAGTCGGAGGC-3′; SEQ ID NO: 298), and one mismatch sequence (containing four base mismatches out of 19 bases, 5′-CGGAGCGTGAGGATGGAGA-3′; SEQ ID NO: 299).
On the technique in general: Real-time PCR tracks product formation cycle by cycle.
With “5′-AAGGGCGGCGGAGTGAGAC-3′ (listed as DNA, chemistry not given here) [H1 sc apo 2, reference compound]”, the “effect on HIAP1 mRNA (and protein) under CHX induction (in words)” value is listed as “did not change HIAP1 mRNA levels at all”.

In a further data set the test system is XIAP protein. Description: XIAP protein knock-down in H460 cells (western blot, densitometry). In kind it is cell-based, human.
Conditions: not given
The method, then:
FIGS. 3 and 4 are graphs showing the effects of 4×4 mixed backbone (MBO) FG8 or E12 oligonucleotides in amounts of 31 nM (FIG. 3) or 63 nM (FIG. 4). H460 lung carcinoma cells were transfected for 18 hours on one, two, or three consecutive days using 125 nM MBOs and Lipofectamine 2000. Samples for western analysis were harvested at the indicated time. Scanning densitometry was performed, and XIAP protein levels were normalized to GAPDH and compared to a mock control set to 100%. The indicated percentages express % XIAP protein knockdown versus specific scrambled controls.
One day prior to transfection, H460 cells were plated in 6- or 96-well tissue culture plates. Phosphorothioate antisense oligonucleotides were delivered into cells with Lipofectamine 2000 (Life Technologies) in the form of liposome-oligonucleotide complexes. Following a 4.5 or 6 h transfection, the transfection medium was replaced with RPMI medium containing 10% FBS, and the cells incubated for another 24 or 48 h.
The cells or tumor tissue samples were lysed with ice-cold lysis buffer (50 mM Tris, 150 mM NaCl, 2.5 mM EDTA, 0.1% SDS, 0.5% sodium deoxycholate, 1% NP-40, 0.02% sodium azide) containing protease inhibitors (Complete-Mini protease inhibitor tablets; Boehringer Mannheim GmBH, Mannheim, Germany). After incubation for 30 min on ice, samples were centrifuged at 10,000 rpm for 15 min, and stored at −20° C. Protein content in the lysed extracts was determined using a detergent-compatible Bio-Rad assay (Bio-Rad Labs, Hercules, Calif.). Equal amounts of protein (40 μg/lane) were separated on 12% SDS-polyacrylamide gels or 4-15% gradient SDS-polyacrylamide pre-made gels (Bio-Rad) and transferred to nitrocellulose membranes. Primary antibodies against XIAP, Bcl-2 (DAKO, Glostrup, Denmark), Bax (Sigma, St. Louis, Mo.), β-actin (Sigma), caspase-3 (BD PharMingen, San Diego, Calif.), and PARP (BD PharMingen) were used. The secondary antibody was the appropriate horseradish-conjugated anti-mouse or anti-rabbit IgG (Promega, Madison, Wis.). Proteins were detected by enhanced chemiluminescence (ECL; Amersham Pharmacia Biotech, Buckinghamshire, England) and visualized after exposure to Kodak autoradiography film. Scanning densitometry (Molecular Dynamics, Sunnyvale, Calif.) was performed to quantify band intensities by volume/area integration. The amount of XIAP, caspase-3, Bcl-2 and Bax in cells was normalized to their respective lane β-actin levels, upon stripping and reprobing.
Regarding “ACCATTCTGGATACCAGAA (chemistry not fully specified) [C5 AS]”, the “effect on XIAP protein levels (in words)” value is “did not show sequence specific effects”.

Regarding “TGTCAGTACATGTTGGCTC (antisense; chemistry not fully specified) [Code E12]”, the “effect on XIAP protein levels (in words)” value was “significantly reduced XIAP protein levels”.

In the case of “mUmGmCmACCCTGGATACCmAmUmUmU (antisense NGCACCCNGGANACCANNN; 2'-O-methyl modifications, chemistry not fully specified) [FG8]”, the “effect on XIAP protein levels (in words)” value is reported as “significantly reduced XIAP protein levels”.

For another data set, the system named is MDA-MB-435/LCC6 human breast carcinoma xenografts. Put plainly: Systemic (i.p.) PS-oligonucleotides in LCC6 breast carcinoma xenografts. Format: in vivo, female SCID-RAG2 mice. The conditions noted are these: 12.5 mg/kg i.p.; day 35, two weeks after the last treatment. The method, then:
Initial systemic PS-oligonucleotide studies were designed without any chemotherapeutic agents. SCID-RAG2 mice were inoculated with H460 human lung carcinoma cells (s.c. shoulder injection of 10^6 cells) and treatments with G4 and F3 AS PS-oligonucleotides, as well as a scrambled control, were initiated three days after tumor inoculation. Nucleobase oligomer injections were administered i.p. at 12.5 mg/kg three times a week for three weeks. At the end of the treatment period, mean tumor sizes in the groups treated with either G4 or F3 AS oligonucleotides were ˜50% smaller than in the group treated with a scrambled control oligonucleotides (FIG. 15). The same treatment protocol was tested on female SCID-RAG2 mice inoculated orthotopically with MDA-MB-435/LCC6 human breast carcinoma cells. Two weeks after the last treatment (day 35) tumor volumes of mice treated with F3, C5 or G4 AS oligonucleotides were 70%, 60%, and 45%, respectively, smaller than vehicle controls (FIG. 16).
Efficacy experiments were conducted in male RAG2 immunodeficient mice bearing NCI-H460 tumours or female RAG2 mice bearing LCC6 tumors. Treatments were commenced on day 3 after tumor inoculation. Saline (controls), G4 AS oligonucleotides (5 or 15 mg/kg), or G4 SC oligonucleotides (5 or 15 mg/kg) were administered i.p. daily for five doses a week over a three week regimen. Vinorelbine (VNB, 5 or 10 mg/kg) was administered i.v. via the tail vein, either alone or in combination with oligonucleotides, at day 3, 7, 11 and 17 after tumor inoculation. When oligonucleotides were administered in combination with VNB, the drug treatment was performed four hours after ODN treatment.
Regarding “ACCATTCTGGATACCAGAA (chemistry not fully specified) [C5 AS]”, the “tumor volumes smaller than vehicle controls” value amounted to 60%.

A further data set relates to XIAP mRNA. Description: XIAP mRNA knock-down in H460 cells (real-time RT-PCR / TaqMan). Format: cell-based, human.
Conditions: not given
Put shortly: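 NCI-H460 cells transfected with phosphorothioate antisense oligonucleotides via Lipofectamine 2000; RNA isolated after 6 h treatment. XIAP mRNA quantified by one-step TaqMan real-time RT-PCR, comparative Ct (threshold 30× baseline SD), normalized to GAPDH and expressed relative to untreated control cells.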
In the case of “TGTCAGTACATGTTGGCTC (antisense; chemistry not fully specified) [Code E12]”, the “XIAP down-regulation H460 RNA” value is recorded as 74%.

The next data set concerns HIAP1 mRNA. Put plainly: HIAP1 mRNA in SF295 cells, basal conditions (TaqMan). The arrangement: decrease of HIAP1 mRNA compared to mock or scrambled survivin control: concentration or dose not given beside the values. The settings on record: SF295 cells (FIG. 21). In kind it is cell-based, human. The method, then: RNA was extracted from cells lysed in RLT buffer (QIAGEN, Valencia, Calif.), and purified using QIAGEN RNeasy columns/kits. Real-time quantitative PCR was performed on a Perkin-Elmer ABI 7700 Prism PCR machine. RNA was reverse transcribed and amplified according to the TaqMan Universal PCR Master Mix protocol of PE Biosystems, using primers and probes designed to specifically recognize XIAP, HIAP1, survivin, or GAPDH. For human survivin, the forward primer was 5′-[…]-3′ (SEQ ID NO: 263), the reverse primer was 5′-GAAAGGAAAGCGCAACCG-3′ (SEQ ID NO: 264), and the probe was 5′-(FAM)[…](TAMRA)-3′ (SEQ ID NO: 265). For human HIAP1, the forward primer was 5′-[…]-3′ (SEQ ID NO: 266), the reverse primer was 5′-[…]-3′ (SEQ ID NO: 267), and the probe was 5′-(FAM)[…](TAMRA)-3′ (SEQ ID NO: 268). For human XIAP, the forward primer was 5′-[…]-3′ (SEQ ID NO: 269), the reverse primer was 5′-[…]-3′ (SEQ ID NO: 270), and the probe was 5′-(FAM)[…](TAMRA)-3′ (SEQ ID NO: 271). For human GAPDH, the forward primer was 5′-GAAGGTGAAGGTCGGAGTC-3′ (SEQ ID NO: 272), the reverse primer was 5′-GAAGATGGTGATGGGATTC-3′ (SEQ ID NO: 273), and the probe was 5′-(JOE)[…](TAMRA)-3′ (SEQ ID NO: 274). FAM is 6-carboxyfluoroscein, JOE is 6-carboxy-4,5-dichloro-2,7-dimethoxyfluoroscein, and TAMRA is 6-carboxy-N,N,N′,N′-tetramethylrhodamine. FAM and JOE are 5′ reporter dyes, while TAMRA is a 3′ quencher dye.
Relative quantification of gene expression was performed as described in the PE Biosystems manual using GAPDH as an internal standard. The comparative Ct (cycle threshold) method was used for relative quantitation of IAP mRNA levels compared to GAPDH mRNA levels. Briefly, real-time fluorescence measurements were taken at each PCR cycle and the threshold cycle (Ct) value for each sample was calculated by determining the point at which fluorescence exceeded a threshold limit of 30 times the baseline standard deviation. The average baseline value and the baseline SD are calculated starting from the third cycle baseline value and stopping at the baseline value three cycles before the signal starts to exponentially rise. The PCR primers and/or probes for the specific IAPs were designed to span at least one exon-intron boundary separated by 1 kb or more of genomic DNA, to reduce the possibility of amplifying and detecting genomic DNA contamination. The specificity of the signal, and possible contamination from DNA, were verified by treating some RNA samples with either DNase or RNase, prior to performing the reverse transcription and PCR reaction steps.
A library of 15 HIAP1 antisense nucleobase oligomers as oligonucleotides was screened for protein knock-down by western blot analysis and for RNA knock-down by TaqMan, using the primers and probes described in Example 3, above, under two different conditions. HIAP1 RNA levels may be detected using standard Northern blot analyses or RT-PCR techniques. The antisense oligonucleotides were administered to cells under basal conditions or under cycloheximide-induction conditions (24 hour treatment with sub-toxic doses). Cycloheximide (CHX) can lead to a 10- to 200-fold induction of HIAP1 mRNA depending on the cell line treated. […] This effect of CHX is via two distinct mechanisms of action. First, CHX activates NFkB, a known transcriptional inducer of HIAP1, by blocking the de novo synthesis of a labile protein, IkB, which is an inhibitor of NFkB. This effect is mimicked by puromycin, another protein synthesis inhibitor, and by TNF-alpha, which induces a signaling cascade leading to the phosphorylation, ubiquination, and degradation of IkB.
SF295 glioblastoma cells were transfected with lipofectin and oligonucleotide (scrambled survivin, no oligonucleotide, antisense APO 1 to APO 15) or left untreated. […]
Consider “CAAGTACTCACACCTTGGA (chemistry not given here) [APO 12]”, for which the “HIAP1 mRNA levels (in words)” value was “did not cause a stress-induced increase in HIAP1 mRNA”.

As for “CCAGTGGTTTGCAAGCATG (chemistry not given here) [APO 7]”, the “HIAP1 mRNA levels (in words)” value was “did not cause a stress-induced increase in HIAP1 mRNA”.

With “GAAATTTAGTGGCCAGGAA (chemistry not given here) [APO 8]”, the “HIAP1 mRNA levels (in words)” value is listed as “did not cause a stress-induced increase in HIAP1 mRNA”.

“GGGCTCAAGTAATTCTCTT (chemistry not given here) [APO 15]”: the “HIAP1 mRNA levels (in words)” value is “did not cause a stress-induced increase in HIAP1 mRNA”.

With “TCATTTGAGCCTGGGAGGT (chemistry not given here) [APO 1]”, the “HIAP1 mRNA levels (in words)” value was “did not cause a stress-induced increase in HIAP1 mRNA”.

The data set is the same for the next values; noted with them: SF295 cells; six hours after transfection.
Regarding “CAAGTACTCACACCTTGGA (chemistry not given here) [APO 12]”, the “decrease of HIAP1 mRNA compared to mock or scrambled survivin control” value (shortened to “decrease of HIAP1 mRNA”) is recorded as approximately 50%.

On to “CCAGTGGTTTGCAAGCATG (chemistry not given here) [APO 7]”, for which the “decrease of HIAP1 mRNA” value is given as approximately 50%.

With “GAAATTTAGTGGCCAGGAA (chemistry not given here) [APO 8]”, the “decrease of HIAP1 mRNA” value is reported as approximately 50%.

With “GGGCTCAAGTAATTCTCTT (chemistry not given here) [APO 15]”, the “decrease of HIAP1 mRNA” value was approximately 50%.

In the case of “TCATTTGAGCCTGGGAGGT (chemistry not given here) [APO 1]”, the “decrease of HIAP1 mRNA” value is approximately 50%.
